Assay results: patent US10098870B2 (JENKEM TECHNOLOGY CO., LTD. (BEIJING), priority 2013, dated 2018)
“Also recorded” adds a separate entry of the source. Where two headings read alike, the source gives them in different places.

Assays:
[1] = Body weight, survival and tolerance of mice bearing Hep3B (Example 7); assay type: in vivo, mouse; conditions: 15 mg/kg i.v. (QD×5)×2W, mean ± SE
[2] = test system: human hepatoma cell plc/prf/5; experiment: Anti-tumor effect on xenograft tumor model of plc/prf/5 in nude mice (Example 6); conditions: for Tumor volume: 25 mg/kg i.v. QD×5, mean ± SE
Description: 10 days later the mean tumor volume was desired to reach about 161 mm^3, the mice with a smaller or larger tumor were removed and the remaining 24 mice were divided into groups randomly according to tumor volume and administrated.
Wherein QW×4W represents intravenous injection once a week for 4 weeks, BIW×4W represents intravenous injection once every two weeks for 4 weeks, the same below.

[3] = test system: human hepatoma cell Hep3B; experiment: Anti-tumor effect on xenograft tumor model of Hep3B in immune deficiency mice (Example 7); conditions: for Tumor volume: mean ± SE
[4] = Body weight, survival and tolerance of mice bearing plc/prf/5 (Example 6); assay type: in vivo, nude mouse; conditions: for Body weight of animal: 25 mg/kg i.v. QD×5, mean ± SE
Description: Wherein QW×4W represents intravenous injection once a week for 4 weeks, BIW×4W represents intravenous injection […] for 4 weeks, the same below. (2) Experimental Results

[5] = in words; cited from earlier work
[6] = test system: Calu-6 human lung cancer cell; experiment: Anti-tumor effect on xenograft tumor model of Calu-6 in nude mice (Example 9);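 for all read-outs here: each nude mouse received 5.0×10^6 Calu-6 cells implanted at the right shoulder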; conditions: 15 mg/kg i.v. BIW×4W; for Tumor volume: mean ± SE
Procedure: Calu-6 cells were cultured with a monolayer in vitro in MEM medium supplied with heat-inactivated fetal bovine serum with a volume ratio of 10%, and an incubator at 37° C. with the air containing CO2 with a proportion of 5%. The tumor cells were passaged with digestion by trypsin-EDTA twice a week. The cells in the exponential growth phase were collected, counted, and used for inoculation.
(§1) 5.0×10^6 of Calu-6 tumor cells were suspended in 0.1 ml of PBS, inoculated to each nude mouse at the right shoulder, and there were totally 34 mice inoculated.

[7] = test system: H460 human non-small cell lung cancer cells; conditions: 15 mg/kg i.v. BIW×3W; for Tumor volume: mean ± SE
Procedure: (§2) 5.0×10^6 of H460 tumor cells were suspended in 0.1 ml of PBS, inoculated to each nude mouse at the right shoulder, and there were totally 34 mice inoculated. 8 days later the mean tumor volume was desired to reach about 143 mm^3, the mice with a smaller or larger tumor were removed and the remaining 24 mice were divided into groups randomly according to tumor volume and administrated.

[8] = Body weight, survival and tolerance of mice bearing A549 (Example 10);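 for all read-outs here: nude mice, each given 1.0×10^7 A549 tumor cells in the right shoulder region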; conditions: 15 mg/kg i.v. BIW×4W; for Body weight of animal: mean ± SE
Procedure: (§3) 1.0×10^7 of A549 tumor cells were suspended in 0.1 ml of PBS, inoculated to each nude mouse at the right shoulder, and there were totally 36 mice inoculated.

[9] = Body weight, survival and tolerance of mice bearing Calu-6 (Example 9);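 for all read-outs here: nude mice bearing Calu-6 tumours, established by implanting 5.0×10^6 cells at the right shoulder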; conditions: 15 mg/kg i.v. BIW×4W; for Body weight of animal: mean ± SE
Procedure: as §1

[10] = Body weight, survival and tolerance of mice bearing H460 (Example 8); conditions: 15 mg/kg i.v. BIW×3W; for Body weight of animal: mean ± SE
Procedure: as §2

[11] = test system: A549 human non-small cell lung cancer cells; experiment: Anti-tumor effect on xenograft tumor model of A549 in nude mice (Example 10);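 for all read-outs here: nude mice bearing A549 xenografts established by inoculating 1.0×10^7 cells in PBS at the right shoulder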; conditions: 15 mg/kg i.v. BIW×4W; for Tumor volume: mean ± SE
Procedure: A549 cells were cultured with a monolayer in vitro in RPMI1640 medium supplied with heat-inactivated fetal bovine serum with a volume ratio of 10%, and an incubator at 37° C. with the air containing CO2 with a proportion of 5%. The tumor cells were passaged with digestion by trypsin-EDTA twice a week. The cells in the exponential growth phase were collected, counted, and used for inoculation.
as §3

[12] = acids, bases, physiological conditions; in words; cited from earlier work
[13] = test system: human hepatoma cell plc/prf/5; experiment: Anti-tumor effect on subcutaneous transplantation tumor model of plc/prf/5 in NOD/SCID mice (Example 5); assay type: in vivo, NOD/SCID mouse; conditions: for Tumor volume: 10 mg/kg (counted with rapamycin) i.v. Q2W×2W, mean ± SE
Procedure: The tumor cells were passaged with digestion by trypsin-EDTA twice a week. The cells in the exponential growth phase were collected, counted, and used for inoculation.
1×10^7 of plc/prf/5 tumor cells were suspended in 0.1 ml of mixed solution (PBS:Matrigel=4:1), inoculated to each NOD/SCID mouse at the right shoulder.
Wherein Q2W×2W represents intravenous injection […] for 2 weeks, the same below. (2) Experimental Results

[14] = 5-FU 25 mg/kg, LPR-2 30 and 45 mg/kg
[15] = 15 mg/kg i.v. (QD×5)×2W, vs physiological saline
[16] = 44th day, 15 mg/kg i.v. (QD×5)×2W, Mean ± SEM

In the case of `O=c1[nH]cc(F)c(=O)[nH]1` [5-FU, reference compound], the “Body weight of animal” value ([1]; day 20 after inoculation) is reported as 19.4 ± 0.4 g, the “Body weight of animal” value ([1]; day 23 after inoculation) is reported as 19.7 ± 0.3 g and the “Body weight of animal” value ([1]; day 27 after inoculation) is reported as 18.6 ± 0.3 g. The “Body weight of animal” value ([1]; day 30 after inoculation) was 18.1 ± 0.3 g, the “Body weight of animal” value ([1]; day 34 after inoculation) was 18.5 ± 0.4 g and the “Body weight of animal” value ([1]; day 37 after inoculation) was 18.3 ± 0.3 g. For the same compound, the “Body weight of animal” value ([1]; day 41 after inoculation) was 18.1 ± 0.3 g, the “anti-tumor effect (in words)” value [2, 14] was “obvious anti-tumor effect” and the Tumor volume ([2]; day 10 after inoculation) was 170 ± 16 mm^3. For the same compound, the Tumor volume ([2]; day 13 after inoculation) was 118 ± 7 mm^3, the Tumor volume ([2]; day 17 after inoculation) was 69 ± 4 mm^3 and the “TGD (to 1,000 mm^3)” value ([3]; 15 mg/kg i.v. (QD×5)×2W) was 6. The “T/C (%) RTV” value [3, 15] was 106%, the “T/C (%) TW” value [3, 15] was 109% and the “anti-tumor effect (in words)” value ([3]; 5-FU 15 mg/kg, LPR-2 30 and 45 mg/kg) was “not significant”. It also gave an RTV [3, 16] of 4.53 ± 0.32, a Tumor weight [3, 16] of 1695 ± 289 mg and a Tumor volume ([3]; day 16 after inoculation, 15 mg/kg i.v. (QD×5)×2W) of 453 ± 66 mm^3. The Tumor volume ([3]; day 20 after inoculation, 15 mg/kg i.v. (QD×5)×2W) was 567 ± 84 mm^3, the Tumor volume ([3]; day 23 after inoculation, 15 mg/kg i.v. (QD×5)×2W) was 667 ± 105 mm^3 and the Tumor volume ([3]; day 27 after inoculation, 15 mg/kg i.v. (QD×5)×2W) was 820 ± 149 mm^3. For the same compound, the Tumor volume ([3]; day 30 after inoculation, 15 mg/kg i.v. (QD×5)×2W) was 850 ± 150 mm^3, the Tumor volume ([3]; day 34 after inoculation, 15 mg/kg i.v. (QD×5)×2W) was 1,123 ± 226 mm^3 and the Tumor volume ([3]; day 37 after inoculation, 15 mg/kg i.v. (QD×5)×2W) was 1,500 ± 295 mm^3. For the same compound, the Tumor volume ([3]; day 41 after inoculation, 15 mg/kg i.v. (QD×5)×2W) was 1,793 ± 342 mm^3, the Tumor volume ([3]; day 44 after inoculation, 15 mg/kg i.v. (QD×5)×2W) was 2,114 ± 395 mm^3 and the “toxicity / tolerance (in words)” value [4, 14] was “so toxic with this dosage that all the animals died; also recorded: a significant toxicity and the whole group of animals died”. The “Body weight of animal” value ([4]; day 10 after inoculation) was 19.6 ± 0.3 g and the “Body weight of animal” value ([4]; day 17 after inoculation) was 14.7 ± 0.5 g.

For `CO[C@H]1C[C@@H]2CC[C@@H](C)[C@@](O)(O2)C(=O)C(=O)N2CCCC[C@H]2C(=O)O[C@H]([C@H](C)C[C@@H]2CC[C@@H](OCCO)[C@H](OC)C2)CC(=O)[C@H](C)/C=C(\C)[C@@H](O)[C@@H](OC)C(=O)[C@H](C)C[C@H](C)/C=C/C=C/C=C/1C` [Everolimus, 42-O-(2-hydroxyethyl)-rapamycin], the water-solubility [5] is listed as “better water-solubility than that of rapamycin”.

In the case of `CC(=O)O[C@H]1C(=O)[C@@]2(C)[C@H]([C@H](OC(=O)c3ccccc3)[C@]3(O)C[C@H](OC(=O)[C@H](O)[C@@H](NC(=O)c4ccccc4)c4ccccc4)C(C)=C1C3(C)C)[C@]1(OC(C)=O)CO[C@@H]1C[C@@H]2O` [Paclitaxel, reference compound], the “TGD (to 1,000 mm^3)” value [6] is reported as >8, the “T/C (%) RTV” value ([6]; vs physiological saline) is reported as 16% and the “T/C (%) TW” value ([6]; vs physiological saline) is reported as 13%. The RTV ([6]; 42nd day, Mean ± SEM) was 2.31 ± 0.53, the Tumor weight ([6]; 42nd day, Mean ± SEM) was 202 ± 52 mg and the Tumor volume ([6]; day 14 after inoculation) was 138 ± 14 mm^3. It also gave a Tumor volume ([6]; day 17 after inoculation) of 159 ± 18 mm^3, a Tumor volume ([6]; day 21 after inoculation) of 222 ± 23 mm^3 and a Tumor volume ([6]; day 24 after inoculation) of 219 ± 26 mm^3. It also gave a Tumor volume ([6]; day 28 after inoculation) of 229 ± 37 mm^3, a Tumor volume ([6]; day 31 after inoculation) of 264 ± 53 mm^3 and a Tumor volume ([6]; day 35 after inoculation) of 281 ± 59 mm^3. The Tumor volume ([6]; day 38 after inoculation) was 282 ± 60 mm^3, the Tumor volume ([6]; day 42 after inoculation) was 314 ± 72 mm^3 and the “TGD (to 1,000 mm^3)” value [7] was 7. The “T/C (%) RTV” value ([7]; vs physiological saline) was 59%, the “T/C (%) TW” value ([7]; vs physiological saline) was 66% and the RTV ([7]; 29th day, Mean ± SEM) was 9.03 ± 0.93. It also gave a Tumor weight ([7]; 29th day, Mean ± SEM) of 1053 ± 146 mg, a Tumor volume ([7]; day 8 after inoculation) of 143 ± 15 mm^3 and a Tumor volume ([7]; day 12 after inoculation) of 295 ± 42 mm^3. For the same compound, the Tumor volume ([7]; day 15 after inoculation) was 400 ± 70 mm^3, the Tumor volume ([7]; day 19 after inoculation) was 519 ± 97 mm^3 and the Tumor volume ([7]; day 22 after inoculation) was 680 ± 110 mm^3. The Tumor volume ([7]; day 26 after inoculation) was 944 ± 117 mm^3, the Tumor volume ([7]; day 29 after inoculation) was 1,281 ± 184 mm^3 and the “N, number of surviving animals after completion of the treatment” value (shortened to “N, number of surviving animals”) ([8]; 6 animals per group) was 6. The “Body weight of animal” value ([8]; day 24 after inoculation) was 20.6 ± 0.4 g, the “Body weight of animal” value ([8]; day 28 after inoculation) was 20.8 ± 0.4 g and the “Body weight of animal” value ([8]; day 31 after inoculation) was 20.6 ± 0.4 g. For the same compound, the “Body weight of animal” value ([8]; day 35 after inoculation) was 20.8 ± 0.5 g, the “Body weight of animal” value ([8]; day 38 after inoculation) was 20.8 ± 0.6 g and the “Body weight of animal” value ([8]; day 42 after inoculation) was 21.6 ± 0.6 g. For the same compound, the “Body weight of animal” value ([8]; day 45 after inoculation) was 21.3 ± 0.6 g, the “Body weight of animal” value ([8]; day 49 after inoculation) was 21.3 ± 0.7 g and the “Body weight of animal” value ([8]; day 52 after inoculation) was 21.8 ± 0.6 g. For the same compound, the “N, number of surviving animals” value ([9]; 6 animals per group) was 6, the “Body weight of animal” value ([9]; day 17 after inoculation) was 20.5 ± 0.2 g and the “Body weight of animal” value ([9]; day 21 after inoculation) was 20.5 ± 0.3 g. For the same compound, the “Body weight of animal” value ([9]; day 24 after inoculation) was 19.6 ± 0.4 g, the “Body weight of animal” value ([9]; day 28 after inoculation) was 19.8 ± 0.4 g and the “Body weight of animal” value ([9]; day 31 after inoculation) was 19.7 ± 0.6 g. For the same compound, the “Body weight of animal” value ([9]; day 35 after inoculation) was 20.1 ± 0.5 g, the “Body weight of animal” value ([9]; day 38 after inoculation) was 20.1 ± 0.4 g and the “N, number of surviving animals” value ([10]; 6 animals per group) was 6. The “Body weight of animal” value ([10]; day 8 after inoculation) was 20.1 ± 0.4 g, the “Body weight of animal” value ([10]; day 12 after inoculation) was 19.9 ± 0.3 g and the “Body weight of animal” value ([10]; day 15 after inoculation) was 19.8 ± 0.2 g. The “Body weight of animal” value ([10]; day 19 after inoculation) was 19.5 ± 0.2 g, the “Body weight of animal” value ([10]; day 22 after inoculation) was 18.6 ± 0.3 g and the “TGD (to 1,000 mm^3)” value [11] was >7. The “T/C (%) RTV” value ([11]; vs physiological saline) was 24%, the “T/C (%) TW” value ([11]; vs physiological saline) was 19% and the RTV ([11]; 52nd day, Mean ± SEM) was 2.35 ± 0.16. The Tumor weight ([11]; 52nd day, Mean ± SEM) was 253 ± 52 mg, the Tumor volume ([11]; day 24 after inoculation) was 138 ± 13 mm^3 and the Tumor volume ([11]; day 28 after inoculation) was 196 ± 24 mm^3. It also gave a Tumor volume ([11]; day 31 after inoculation) of 230 ± 35 mm^3, a Tumor volume ([11]; day 35 after inoculation) of 260 ± 49 mm^3 and a Tumor volume ([11]; day 38 after inoculation) of 265 ± 48 mm^3. The Tumor volume ([11]; day 42 after inoculation) was 294 ± 41 mm^3, the Tumor volume ([11]; day 45 after inoculation) was 327 ± 54 mm^3 and the Tumor volume ([11]; day 49 after inoculation) was 342 ± 54 mm^3. It also gave a Tumor volume ([11]; day 52 after inoculation) of 331 ± 49 mm^3.

In the case of `CO[C@H]1C[C@@H]2CC[C@@H](C)[C@@](O)(O2)C(=O)C(=O)N2CCCC[C@H]2C(=O)O[C@H]([C@H](C)C[C@@H]2CC[C@@H](O)[C@H](OC)C2)CC(=O)[C@H](C)/C=C(\C)[C@@H](O)[C@@H](OC)C(=O)[C@H](C)C[C@H](C)/C=C/C=C/C=C/1C` [Rapamycin], the stability [12] is listed as “degraded even under physiological conditions”.

With “Y-type polyethylene glycol (40K)-glutamic acid dipeptide-rapamycin conjugate [LPR-3]” the “anti-tumor effect (in words)” value ([13]; 10 mg/kg counted with rapamycin, i.v. Q2W×2W) was “stronger antitumor activity than that of polyethylene glycol-rapamycin (LPR-1); also recorded: a certain anti-tumor effect”, the “Days for delaying tumor growth (to 1000 mm^3)” value ([13]; 10 mg/kg i.v. Q2W×2W) was >7 days and the “Tumor control rate T/C (%)” value ([13]; 10 mg/kg i.v. Q2W×2W, day 38, vs vehicle control) was 47%. It also gave a Tumor volume ([13]; day 24 after inoculation) of 358 ± 62 mm^3, a Tumor volume ([13]; day 27 after inoculation) of 455 ± 85 mm^3 and a Tumor volume ([13]; day 31 after inoculation) of 569 ± 100 mm^3. The Tumor volume ([13]; day 34 after inoculation) was 754 ± 151 mm^3 and the Tumor volume ([13]; day 38 after inoculation) was 848 ± 178 mm^3.
